From article PMC8449414, “Rational design of ASCT2 inhibitors using an integrated experimental-computational approach” (Proceedings of the National Academy of Sciences of the …, 2021)

How the values were obtained:
Format in all cases: cell-based
rASCT2 [1] = target: T1, rASCT2 (Rattus norvegicus, UniProt D3ZJ25); assay: Electrophysiology: inhibition of leak anion current in transfected HEK293 cells; conditions: for inhibition of the leak anion current (in words): concentration range tested up to 200 µM, Ki could not be obtained; for Km: substrate dose response of anion current, rat ASCT2-expressing HEK293 cells, read-out: apparent Km
T1 construct: expressed in transfected cells; host or cells: HEK293 (ATCC CRL-11268), transient transfection
T1 sequence (D3ZJ25 1-555): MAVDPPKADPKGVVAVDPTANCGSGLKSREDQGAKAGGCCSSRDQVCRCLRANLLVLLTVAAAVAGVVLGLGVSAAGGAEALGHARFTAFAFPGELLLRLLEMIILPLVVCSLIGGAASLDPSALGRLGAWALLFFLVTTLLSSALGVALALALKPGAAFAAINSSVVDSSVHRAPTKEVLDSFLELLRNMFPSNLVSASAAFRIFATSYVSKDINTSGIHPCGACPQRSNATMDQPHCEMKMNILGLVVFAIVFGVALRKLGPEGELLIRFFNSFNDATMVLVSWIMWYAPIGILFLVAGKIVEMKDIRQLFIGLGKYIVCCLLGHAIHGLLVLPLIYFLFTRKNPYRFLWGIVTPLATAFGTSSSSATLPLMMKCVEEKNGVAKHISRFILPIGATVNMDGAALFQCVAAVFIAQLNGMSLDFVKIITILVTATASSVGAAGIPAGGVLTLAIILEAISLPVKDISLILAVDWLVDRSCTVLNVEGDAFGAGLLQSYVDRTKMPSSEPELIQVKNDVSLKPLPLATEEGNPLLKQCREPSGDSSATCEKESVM
Procedure: (§1) Cell culture and transfection
(§2) Human embryonic kidney 293 (HEK293, ATCC CRL -11268) cells were cultured in DMEM media supplemented with 10% (v/v) fetal bovine serum (FBS), 2 mM glutamine, 1% penicillin streptomycin solution, 1 mM sodium pyruvate and non -essential amino acids. Cells were maintained at 370C in a fully humidified atmosphere containing 5% CO2. rASCT2, hASCT2, hASCT1, EAAT1, EAAT2, EAAT3, EAAT5 and YFP complementary DNAs were each used to transiently transfect HEK293 using POLYPLUS Jet-prime transfection reagent. Cells were analyzed using electrophysiological techniques 24-40 hours after transfection.
(§3) Electrophysiological techniques
(§4) Electrophysiological experiments were performed as described previously 1,2. Stock solutions of inhibitor was prepared in dimethyl sulfoxide (DMSO) up to 100 mM.
(§5) Dilutions to working concentrations were made using external buffer. The highest

hASCT2 = target: T2, hASCT2 (Homo sapiens, UniProt Q15758); assay: as above; conditions: HEK293 cells, 0 mV, 130 mM NaSCN internal, 140 mM NaCl external; No current = no inhibition of anion leak current up to highest concentration tested (§ 20-50, || 100-400, # 1500-2500 µM); read-out: Binding affinity Ki (apparent Ki)
T2 construct: expressed in transfected cells; host or cells: HEK293 (ATCC CRL-11268), transient transfection
T2 sequence (Q15758 1-541): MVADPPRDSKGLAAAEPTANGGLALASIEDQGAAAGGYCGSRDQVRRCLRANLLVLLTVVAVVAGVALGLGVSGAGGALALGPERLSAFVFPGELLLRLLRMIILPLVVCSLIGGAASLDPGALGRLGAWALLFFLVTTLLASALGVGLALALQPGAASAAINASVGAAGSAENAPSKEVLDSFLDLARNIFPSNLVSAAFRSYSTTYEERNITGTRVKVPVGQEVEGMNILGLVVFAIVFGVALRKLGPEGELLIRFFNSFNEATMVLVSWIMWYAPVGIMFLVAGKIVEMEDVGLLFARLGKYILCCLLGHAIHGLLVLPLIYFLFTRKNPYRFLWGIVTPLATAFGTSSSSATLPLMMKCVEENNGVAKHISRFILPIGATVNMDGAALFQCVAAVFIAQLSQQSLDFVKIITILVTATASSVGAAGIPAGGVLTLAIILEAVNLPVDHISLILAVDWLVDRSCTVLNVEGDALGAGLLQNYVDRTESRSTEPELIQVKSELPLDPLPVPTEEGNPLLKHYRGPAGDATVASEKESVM
Procedure: as §1, §2, §3, §4, §5

rASCT2 [2] = target: T1, rASCT2; assay: Inhibitor dissociation kinetics by ligand displacement with alanine (rapid solution exchange); conditions: 5 mM alanine rapidly applied, no inhibitor (control), 0 mV
Procedure: Fig. 2. […] (A) Electrophysiological recordings obtained after application of alanine (red trace) and increasing concentrations of Lc-BPE (black traces). The times of application of alanine or Lc-BPE are shown by a gray bar (top). (B and C) Lc-BPE inhibitor dose–response relationships for rASCT2 and hASCT2, respectively. […] Currents were normalized to the current recorded after application of 10 µM inhibitor concentration. (D) Inhibition of glutamine uptake (5 µM external concentration) in the presence of varying concentration of Lc-BPE and 5 µM glutamine measured in proteoliposomes reconstituted with purified hASCT2. […] Errors bars represent SEM from at least two biologically independent measurements. (E) Current recorded after rapid solution exchange from extracellular buffer (control, gray bar, black trace) to a solution containing buffer + 5 mM alanine (white bar). For the red trace, the cell was preincubated with 10 µM Lc-BPE (red bar, red trace) followed by rapid application of 5 mM alanine. All current recordings were performed at 0 mV in the presence of 130 mM NaSCN internal and 140 mM NaCl external (homoexchange) solutions. […]
To test this, we measured the dissociation kinetics of Lc-BPE using a ligand displacement approach. First, rASCT2-expressing cells were preincubated with a saturating solution of Lc-BPE (10 µM), and subsequently the inhibitor was displaced using a supersaturating concentration of the substrate L-alanine (5 mM) (Fig. 2 E and F).

SMILES	inhibition of the leak anion current (in words) (rASCT2 [1])	Km (rASCT2 [1]; 0 mV)	further results
O=C(O[C@H]1CN[C@@H](C(=O)O)C1)c1ccc(-c2ccccc2)cc1 [Dc-BPE]	too small at high compound concentrations	–	–
O=C(O[C@@H]1CN[C@@H](C(=O)O)C1)c1ccc(-c2ccccc2)cc1 [Dt-BPE]	unspecific	–	–
O=C(O[C@H]1CN[C@H](C(=O)O)C1)c1ccc(-c2ccccc2)cc1 [Lt-BPE]	–	–	Ki (rASCT2 [1]; HEK293 cells, 0 mV, 130 mM NaSCN internal, 140 mM NaCl external, No current = no inhibition of anion leak current up to highest concentration tested (§ 20-50, || 100-400, # 1500-2500 µM), read-out: Binding affinity Ki (apparent Ki)): 232 ± 44 µM; Ki (hASCT2): 205 ± 27 µM
C[C@H](N)C(=O)O [alanine, L-alanine, reference compound]	–	318 ± 17 µM	rate constant of the current rise (rASCT2 [2]): 24.6 ± 5.2 s⁻¹; rate constant of the current rise (rASCT2 [2]; listed as Alanine): 24 s⁻¹
NC(=O)CC[C@H](N)C(=O)O [glutamine, L-glutamine, reference compound]	–	233 ± 41 µM	–
